According to ChEMBL document CHEMBL5537117, “Novel 3-hydroxypyridin-4(1H)-One derivatives as ferroptosis inhibitors with iron-chelating and reactive oxygen species scavenging activities and therapeutic effect in cisplatin-induced cytotoxicity” (Eur J Med Chem, 2024):
The source made the active and inactive calls. The rule behind the calls is not given here.

Assays:
[1] = Antioxidant activity assessed as ABTS radical scavenging activity incubated in dark for 6 mins by absorbance based microplate reader analysis; type: functional
[2] = Antioxidant activity assessed as trolox equivalent of ORAC radical scavenging activity at 8 uM; type: functional
[3] = Antioxidant activity assessed as trolox equivalent of ORAC radical scavenging activity at 4 uM; type: functional
[4] = Acid dissociation constant, pKa1 of the compound in 0.1M KCl at pH 2.0 to 10.5 by UV absorption method; type: physicochemical
[5] = Acid dissociation constant, pKa2 of the compound in 0.1M KCl at pH 2.0 to 10.5 by UV absorption method; type: physicochemical
[6] = Acid dissociation constant, pKa3 of the compound in 0.1M KCl at pH 2.0 to 10.5 by UV absorption method; type: physicochemical
[7] = Metal chelating activity assessed as Fe3+ chelation
[8] = Log K1 of the compound in 0.1M KCl at pH 0.9 to 2.1 by UV absorption method; type: physicochemical
[9] = Log K2 of the compound in 0.1M KCl at pH 2.0 to 10.5 by UV absorption method; type: physicochemical
[10] = Log K3 of the compound in 0.1M KCl at pH 2.0 to 10.5 by UV absorption method; type: physicochemical
HT-22 [11] = assay: Anti-ferroptotic activity in erastin-induced ferroptosis in mouse HT-22 cells assessed as cell viability incubated for 24 hrs by MTT assay; type: functional, cell-based; conditions: HT-22, 24 h
HT-22 [12] = assay: Cytotoxicity against mouse HT-22 cells assessed as reduction in cell viability at 150 uM by MTT assay relative to control; type: toxicity, cell-based; conditions: ht-22, 150 µM
HT-22 [13] = assay: Anti-ferroptotic activity against Erastin-induced ferroptosis in mouse HT-22 cells assessed as reduction in ROS accumulation at 100 uM measured after 24 hrs by DCFH-DA based flow cytometry analysis relative to control; type: functional; set-up: scale not given: the % may be the effect or the level left
L02 = assay: Cytotoxicity against human L02 cells assessed as reduction in cell viability at upto 100 uM by MTT assay; type: toxicity, cell-based; conditions: l02, 100 µM
HEK-293T [14] = assay: Protection against cisplatin-induced cytotoxicity in HEK293T cells assessed as cell viability measured after 24 to 48 hrs by MTT assay; type: functional, cell-based; conditions: Homo sapiens
HEK-293T [15] = assay: Protection against cisplatin-induced cytotoxicity in HEK293T cells assessed as reduction in attenuation of intracellular Fe2+ at 30 to 80 uM measured after 24 hrs by FeRhoNox-1 based flow cytometry analysis; type: functional, cell-based; conditions: Homo sapiens, dose 30-80 µM

| SMILES | IC50 [1] | Activity [2] | Activity [3] | pKa [4] | pKa [5] | pKa [6] | Activity [7] | log(activity) [8] | log(activity) [9] | log(activity) [10] | EC50 (HT-22 [11]) | Activity (HT-22 [12]) | Activity (HT-22 [13]) | Activity (L02) | EC50 (HEK-293T [14]) | Activity (HEK-293T [15]) |
| --- | --- | --- | --- | --- | --- | --- | --- | --- | --- | --- | --- | --- | --- | --- | --- | --- |
| COc1ccc(/C=C/C(=O)Nn2ccc(=O)c(O)c2C)c(F)c1 | > 100 µM | 6.01 | < 0.1 | – | – | – | – | – | – | – | – | – | – | – | – | – |
| Cc1cccc(C)c1/C=C/C(=O)Nn1ccc(=O)c(O)c1C | 4.88 µM | 5.6 | 2.91 | 2.06 | 6.97 | 10.3 | 16.9 | 13.71 | 25.8 | 35.08 | – | – | – | – | – | – |
| Cc1c(O)c(=O)ccn1NC(=O)/C=C/c1ccc(C(F)(F)F)cc1 | 12 µM | 0.61 | < 0.1 | – | – | – | – | – | – | – | – | – | – | – | – | – |
| Cc1c(O)c(=O)ccn1NC(=O)/C=C/c1cc(Cl)ccc1Cl | > 100 µM | 6.56 | 3.06 | 2.48 | 7.34 | 10 | 17.7 | 14.19 | 26.02 | 35.05 | – | – | – | – | – | – |
| COc1ccc(/C=C/C(=O)Nn2ccc(=O)c(O)c2C)cc1 | 5.17 µM | 19.4 | 9.42 | 2.42 | 7.41 | 10.3 | 17.1 | 14.01 | 26.09 | 35.52 | 28.9 µM | – | – | – | – | – |
| Cc1cccc(/C=C/C(=O)Nn2ccc(=O)c(O)c2C)c1C | 10.2 µM | 13.1 | 7.64 | 2.38 | 7.06 | 10.3 | 17.5 | 14.07 | 26.22 | 35.67 | – | – | – | – | – | – |
| Cc1c(O)c(=O)ccn1NC(=O)/C=C/c1c(F)cccc1F | 4.81 µM | 5.03 | 2.45 | 2.51 | 6.83 | 10.2 | 17.4 | 14.27 | 26.25 | 35.32 | – | – | – | – | – | – |
| Cc1cccc(/C=C/C(=O)Nn2ccc(=O)c(O)c2C)c1 | 4.91 µM | 2.51 | 0.57 | 1.3 | 7.23 | 10.4 | 15.8 | 13.57 | 25.95 | 35.55 | – | – | – | – | – | – |
| O=C(O)/C=C/c1ccccc1 [CINNAMIC ACID] | > 100 µM | 1.13 | 1.27 | – | – | – | – | – | – | – | – | – | – | – | – | – |
| COc1cc(F)ccc1/C=C/C(=O)Nn1ccc(=O)c(O)c1C | 5.01 µM | 3.83 | 1.21 | 2.34 | 7.02 | 10.4 | 17 | 14.06 | 26.09 | 35.29 | – | – | – | – | – | – |
| Cc1c(O)c(=O)ccn1NC(=O)/C=C/c1ccccc1Cl | 5.14 µM | 6.46 | 2.67 | 2.22 | 6.96 | 10.2 | 17.4 | 14.03 | 26.11 | 35.29 | – | – | – | – | – | – |
| Cc1c(O)c(=O)ccn1NC(=O)/C=C/c1ccccc1F | 4.38 µM | 24.9 | 18.1 | 2.4 | 6.74 | 10.3 | 17.6 | 14.34 | 26.41 | 35.75 | 25.8 µM | > 80% | – | – | – | – |
| COc1cccc(/C=C/C(=O)Nn2ccc(=O)c(O)c2C)c1 | 4.78 µM | 16.1 | 8.99 | 2.4 | 6.99 | 10.2 | 17.8 | 14.2 | 26.72 | 35.64 | 26.2 µM | > 80% | – | – | – | – |
| Cc1c(O)c(=O)ccn1NC(=O)/C=C/c1ccc(F)cc1 | 4.97 µM | 34.1 | 22.8 | 2.64 | 7.15 | 10.2 | 17.8 | 14.3 | 26.34 | 35.77 | 17.4 µM | > 80% | – | – | – | – |
| Cc1c(O)c(=O)ccn1NC(=O)/C=C/c1ccc(F)cc1F | 7.51 µM | 2.67 | 1.17 | 2.57 | 6.83 | 10.2 | 17.5 | 14.11 | 26.11 | 35.31 | – | – | – | – | – | – |
| Cc1c(O)c(=O)ccn1NC(=O)/C=C/c1cccc(Cl)c1 | 4.9 µM | 6.52 | 3.27 | 2.52 | 6.66 | 10.1 | 17.8 | 14.03 | 26.16 | 35.28 | – | – | 100% | – | – | – |
| Cc1ccccc1/C=C/C(=O)Nn1ccc(=O)c(O)c1C | 4.68 µM | 3.09 | 0.97 | 2.23 | 6.98 | 10.2 | 17.6 | 13.79 | 25.95 | 35.43 | – | – | – | – | – | – |
| COc1ccc(/C=C/C(=O)Nn2ccc(=O)c(O)c2C)cc1OC | 4.9 µM | 21.1 | 15.7 | 2.29 | 7.33 | 10.2 | 17.3 | 13.89 | 25.87 | 35.17 | 33.5 µM | > 80% | – | – | – | – |
| O=C(/C=C/c1ccccc1)c1ccccc1 [CHALCONE] | – | – | – | – | – | – | – | – | – | – | > 500 µM | – | – | – | – | – |
| Cc1ccc(/C=C/C(=O)Nn2ccc(=O)c(O)c2C)cc1 | 4.79 µM | 2.89 | 0.72 | 2.25 | 7.24 | 10.3 | 16.8 | 13.93 | 26.49 | 34.5 | – | – | – | – | – | – |
| Oc1ccc(/C=C/c2cc(O)cc(O)c2)cc1 [RESVERATROL] | 5.14 µM | 17.6 | 16.7 | – | – | – | – | – | – | – | – | – | – | – | – | – |
| Cc1c(O)c(=O)ccn1NC(=O)/C=C/c1ccc(Cl)cc1 | 8.66 µM | < 0.1 | < 0.1 | – | – | – | – | – | – | – | – | – | – | – | – | – |
| Cc1c(C)c2c(c(C)c1O)CCC(C)(C(=O)O)O2 (centres undefined) [TROLOX] | 15.3 µM | – | – | – | – | – | – | – | – | – | – | – | – | – | – | – |
| Cc1c(O)c(=O)ccn1NC(=O)/C=C/c1ccc(F)cc1Cl | 5.01 µM | 4.78 | 2.15 | 2.71 | 6.7 | 10.2 | 17.6 | 14.41 | 26.4 | 35.55 | – | – | – | – | – | – |
| Cc1c(O)c(=O)ccn1NC(=O)/C=C/c1cccc(Cl)c1F | 21.8 µM | 1.24 | < 0.1 | – | – | – | – | – | – | – | – | – | – | – | – | – |
| Cc1c(O)c(=O)ccn1NC(=O)/C=C/c1ccccc1 | 4.8 µM | 11.4 | 6.73 | 2.37 | 7.1 | 10.1 | 17.9 | 13.61 | 25.88 | 35.4 | 72 µM | > 80% | – | – | – | – |
| COc1ccccc1/C=C/C(=O)Nn1ccc(=O)c(O)c1C | 4.78 µM | 14.6 | 8.92 | 2.46 | 7.09 | 10.3 | 17.4 | 14.14 | 26.17 | 35.48 | 18.2 µM | > 80% | – | – | – | – |
| Cc1c(O)c(=O)ccn1C [DEFERIPRONE] | 9.7 µM | 9.19 | 4.73 | – | 9.93 | – | 17.9 | 14.12 | 25.8 | 34.97 | 165 µM | > 80% | – | Non-Toxic | 40 µM | Active |
| COc1ccc(/C=C/C(=O)Nn2ccc(=O)c(O)c2C)c(OC)c1OC | 6.99 µM | 14.8 | 8.52 | 2.1 | 7.29 | 10.2 | 17 | 13.72 | 25.73 | 35 | 19.6 µM | > 80% | – | – | – | – |
